Paper PMC10820890, “Potential of Tryptamine Derivatives as Multi-Target Directed Ligands for Alzheimer’s Disease: AChE, MAO-B, and COX-2 as Molecular Targets” (Molecules, 2024)
Where two headings read alike, the source gives them in different places.

Experiments:
Human recombinant COX-2 = biological target: T1, Human recombinant COX-2 (Homo sapiens, UniProt P35354); assay: In vitro fluorometric COX-2 inhibition assay kit; type: biochemical; details: compounds tested at 100 µM, mean of three independent measurements; for inhibition at 100 µM: read-out: COX-2 (%Inhibition ± SD)
T1 construct: purchased BioVision (kit manual cited); the text also says reagents came from Sigma-Aldrich K547
T1 sequence (P35354 18-604): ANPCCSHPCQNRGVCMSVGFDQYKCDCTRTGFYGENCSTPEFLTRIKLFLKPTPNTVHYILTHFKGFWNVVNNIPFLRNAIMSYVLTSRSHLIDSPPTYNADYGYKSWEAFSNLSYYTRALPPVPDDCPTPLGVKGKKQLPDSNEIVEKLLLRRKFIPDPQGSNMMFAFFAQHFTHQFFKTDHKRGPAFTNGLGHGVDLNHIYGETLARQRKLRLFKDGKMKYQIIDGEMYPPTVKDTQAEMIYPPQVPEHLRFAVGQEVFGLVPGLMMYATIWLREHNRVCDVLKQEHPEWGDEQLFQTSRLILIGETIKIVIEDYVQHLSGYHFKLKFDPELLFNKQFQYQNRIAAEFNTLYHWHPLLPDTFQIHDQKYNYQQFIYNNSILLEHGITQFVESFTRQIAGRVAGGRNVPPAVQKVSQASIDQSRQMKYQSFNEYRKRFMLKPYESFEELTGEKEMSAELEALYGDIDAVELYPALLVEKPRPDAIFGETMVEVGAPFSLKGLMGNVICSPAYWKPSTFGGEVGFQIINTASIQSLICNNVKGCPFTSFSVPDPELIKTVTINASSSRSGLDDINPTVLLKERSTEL
Description: The fluorometric COX-2 inhibition assay kit provides a simple, fast, sensitive, and consistent method appropriate for carrying out high-throughput analysis for COX-2 inhibitors. The assay is based on the formation of prostaglandin G2 (PG2), which is an intermediate made from arachidonic acid under the action of the COX-2 enzyme. The reagents were prepared, and testing procedures were executed according to these recommended guidelines. The fluorescence of the samples was measured in an opaque 96-well plate at a temperature of 37 °C, precisely 5 min after the initiation of the experiment, utilizing a microplate reader from Thermo Scientific, USA. All compounds were tested at a concentration of 100 µM in a DMSO-1% solution. […] Dilutions were prepared in sodium phosphate buffer 0.1 M, pH 7.4. All the reagents were purchased from Sigma-Aldrich, St. Louis, MO, USA. The mean fluorescence values were calculated to determine the percentage of inhibition achieved by each compound. […] Each experiment was conducted in triplicate, and the percent inhibition was calculated using the following formula: % Inhibition=fluorescence of control−fluorescence of test compound/fluorescence of control×100

[1] = biological target: T2, MAO-B extracted from the rat brain (Rattus norvegicus, UniProt P19643); assay: MAO-B inhibition, Amplex Red monoamine oxidase assay kit; type: biochemical
T2 construct: Synaptosomes containing the MAO enzyme were isolated from the rat brain; from tissue; host or cells: rat brain synaptosomes (Dawley rats)
T2 sequence (P19643 1-520): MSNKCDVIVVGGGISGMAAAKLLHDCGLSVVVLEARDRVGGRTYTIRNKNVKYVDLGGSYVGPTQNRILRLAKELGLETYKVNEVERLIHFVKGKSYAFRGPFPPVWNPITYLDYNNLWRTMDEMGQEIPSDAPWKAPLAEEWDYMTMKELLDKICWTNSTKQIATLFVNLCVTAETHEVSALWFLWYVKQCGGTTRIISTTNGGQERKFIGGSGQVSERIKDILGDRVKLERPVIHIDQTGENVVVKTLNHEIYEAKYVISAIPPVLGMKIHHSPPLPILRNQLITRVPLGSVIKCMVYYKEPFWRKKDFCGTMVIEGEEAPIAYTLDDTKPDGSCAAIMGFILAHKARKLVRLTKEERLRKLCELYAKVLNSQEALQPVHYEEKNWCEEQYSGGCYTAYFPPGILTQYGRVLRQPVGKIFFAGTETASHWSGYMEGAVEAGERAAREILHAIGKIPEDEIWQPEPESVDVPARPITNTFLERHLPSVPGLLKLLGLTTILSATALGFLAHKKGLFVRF
Text: Synaptosomes containing the MAO enzyme were isolated from the rat brain by the method of Hojas, with some modification. Three Dawley rats of any sex with weight ranging from 200–250 gm were decapitated after administration of an anesthetic agent (mixture of propofol and xylocaine). Immediately, complete brains were removed from the bed of ice on a petri dish, and the brains were washed with ice-chilled PBS (phosphate-buffered saline) of pH 7.0, 0.1M and normal saline. Then, each brain, weighing approximately 1 g, was suspended into 10 mL of ice-chilled […] sucrose pH 7.4 20% w/v accordingly and homogenized for 10 min using Daihan homogenizer HG-15A. Brain homogenate was transferred into a centrifuge tube and centrifuged at a speed of 7500× g rpm for 15 min at 4 °C by a Scan Speed 1730R Microcentrifuge from Labo Gene, Marlborough, MA, USA. The supernatant was preserved, and the solid brain mass debris present on the bottom was discarded. The supernatant was then diluted with ice-chilled distilled PBS as per need and centrifuged over 12,000× g rpm for 20 min at 4 °C through the mentioned microcentrifuge. Then, pellets containing a white solid mass at the bottom (synaptosomes containing the MAO enzyme) were stored, and each pallet was diluted with PBS buffer. Aliquoting of synaptosomes was carried out and stored at −70 °C till the assay was performed.
For the evaluation of the MAO-B inhibition potential of synthesized compounds, the Amplex® Red Monoamine Oxidase Assay kit was purchased from Invitrogen Molecular Probes, Thermo Fisher Scientific, Waltham, MA, USA. This is a one-step fluorometric bioassay that principally detects the resorufin (7-Hydroxy-3H-phenoxazin-3-one), which is a fluorescent moiety formed in the presence of Horseradish Peroxidase (HRP) by the oxidation of nonfluorescent compound Amplex Red (AMR), chemically known as 10-acetyl-3,7-dihydroxyphenoxazine. The hydrogen peroxide (H2O2) was synthesized during the conversion of substrate to its aldehyde product by MAO enzyme action. […] The assay was performed according to the instruction of the manufacturer (http://tools.thermofisher.com/content/sfs/manuals/mp12214.pdf; accessed on 20 October 2020), with a few modifications. The Amplex Red reagent kit was used as compared to other H2O2 detection probes because of its stability and the stability of resorufin, which is a reaction product along with the longer wavelength spectra. Extracted MAO-B enzyme from rat brain was diluted in sodium phosphate buffer of pH 7.4, 0.25 M. The substrate for MAO-B was benzylamine. Pargyline was used as a standard. All the stock solutions of inhibitors were prepared in dimethyl sulfoxide (DMSO) 100%. Different dilutions of inhibitors were prepared in reaction buffer to obtain less than 2% (v/v) DMSO for evading false positive results. The final reaction volume contained a two-fold lower concentration of enzyme and the inhibitors. […] H2O2 working solution was diluted in the reaction buffer to prepare a final concentration of 10 µM H2O2 and used as positive control, and the reaction buffer with no H2O2 was the negative control. The reaction was started by adding 100 µL of working solution in each well of a black, opaque, 96-well microplate holding the controls and samples. A total of 50 µL of the MAO enzyme solution was added into each well. The composition of the working solution was 400 µM Amplex Red reagent, reaction buffer, 2 U/mL HRP, and 2 mM substrate solution. The possible interference that can be produced by the fluorescence of the compounds generated within the reaction mixture because of non enzymatic inhibition was eradicated by the addition of samples with Amplex Red only in the reaction buffer. The fluorescence of the blank (control with no enzyme) was subtracted to correct the background fluorescence. All the reactions were incubated at 37 °C for 30 min. […]

AChE from electric eel = AChE from electric eel (Electrophorus electricus, UniProt O42275); assay: biochemical; details: mean of three independent measurements, read-out: AChE (IC50 ± SD)
Text: The AChE inhibitory potential of the synthesized tryptamine derivatives was investigated using a modified Ellman’s method. In this enzymatic assay, thiocholine, the product of enzymatic hydrolysis, lacks a substantial chromophore for UV detection. Therefore, Ellman’s reagent (DTNB) was employed as the chromogenic chemical. Ellman’s procedure for the in vitro acetylcholinesterase inhibition assay is based on a two-step reaction involving the chemical components DTNB (5,5-dithiobis(2-nitro) benzoic acid), a hydrolyzed substrate (thiocholine), and the enzyme AChE [59]. In the first step, the substrate acetylthiocholine iodide undergoes hydrolysis catalyzed by the AChE enzyme, resulting in the formation of thiocholine and acetic acid. In the second step, TNB (5-thio-2-nitrobenzoic acid) is generated by the reaction between Ellman’s reagent (DTNB) and thiocholine through an electron-shifting process to sulfur. […] Higher enzyme activity is reflected by an increase in absorbance at this wavelength. The formation of TNB is directly associated with the hydrolysis of acetylthiocholine iodide. Each reaction was initiated by taking a 2 mL working solution, which consisted of 150 µL of the sample (either test compounds or positive control), 50 µL of 0.22 units/mL acetylcholinesterase enzyme from electric eel origin (AChE, E.C. 3.1.1.7, in lyophilized powder, ≥1000 unit), and sodium phosphate buffer (0.1 M, pH 7.4), making it up to a total of 2 mL. The working solution was then incubated at room temperature ([…]) for 15 min, after which 1 mL of Ellman’s solution (200 µL of 75 mM ACTI and 500 µL of 10 mM DTNB in 15 mL sodium phosphate buffer) was added. The stock solutions of tryptamine analogs were prepared in dimethyl sulfoxide (DMSO) 100%. […] All chemicals were purchased from Sigma-Aldrich, St. Louis, MO, USA and TCI Tokyo Chemical Industry Co., Ltd., Saitama, Japan. […] A negative control reaction was also performed under the same conditions but without the inclusion of samples. In this assay, the blank consisted of sodium phosphate buffer. Each experiment was conducted in triplicate.
The percentage of acetylcholinesterase inhibition activity for each tested dilution was calculated using the following equation: Percent inhibition activity%=Absorbance of control−Absorbance of test/Absorbanec of control×100
The results were then presented in a tabular format as the mean IC50 ± SD. The IC50 values, which represent the half-maximal inhibitory concentration, were determined by creating a graph that relates different concentrations (µM) to the percent inhibition (%) using the linear regression method provided by GraphPad Prism software 7 [61, 62, 63].

[2] = MAO-B extracted from rat brain, substrate benzylamine, mean of three independent measurements, read-out: MAO-B (IC50 ± SD)

Chain of AChE from electric eel (O42275 24-633): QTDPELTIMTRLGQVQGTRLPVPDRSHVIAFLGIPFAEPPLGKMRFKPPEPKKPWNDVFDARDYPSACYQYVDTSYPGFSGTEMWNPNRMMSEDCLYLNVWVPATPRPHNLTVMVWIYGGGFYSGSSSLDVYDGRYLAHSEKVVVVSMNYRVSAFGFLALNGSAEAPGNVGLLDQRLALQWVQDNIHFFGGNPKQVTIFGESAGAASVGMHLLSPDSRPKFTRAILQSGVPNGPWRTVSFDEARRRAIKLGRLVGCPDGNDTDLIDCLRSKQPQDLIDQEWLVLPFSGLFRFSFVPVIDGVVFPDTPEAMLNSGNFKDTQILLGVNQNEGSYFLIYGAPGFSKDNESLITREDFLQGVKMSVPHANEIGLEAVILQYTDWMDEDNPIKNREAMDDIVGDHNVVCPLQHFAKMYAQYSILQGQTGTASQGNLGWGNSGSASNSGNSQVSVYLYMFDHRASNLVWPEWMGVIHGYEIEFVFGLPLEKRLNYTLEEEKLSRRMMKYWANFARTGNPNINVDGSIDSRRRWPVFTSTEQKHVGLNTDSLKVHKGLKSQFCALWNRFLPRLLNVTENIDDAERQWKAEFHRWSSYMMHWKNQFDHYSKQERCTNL

SMILES | inhibition at 100 µM (Human recombinant COX-2) [%] | IC50 [1, 2] [µM] | IC50 (AChE from electric eel) [µM] | IC50 [1] [µM] | COX-2 (%Inhibition ± SD) (Human recombinant COX-2; 100 µM) [%]
O=C(CNCCc1c[nH]c2ccccc12)c1ccc2ccccc2c1 [SR08] | 72.3 ± 1.67 | 244.2 ± 1 | 4.36 ± 0.12 |  | 
O=C(CCNCCc1c[nH]c2ccccc12)c1ccccc1 [SR25] | > 70 |  | 0.17 ± 0.02 | 85.1 ± 0.26 | 
COc1ccc(C(=O)CNCCc2c[nH]c3ccccc23)cc1 [SR17] | 72.8 ± 2.54 | 150.1 ± 0.26 | 8.23 ± 0.12 |  | 
O=C(CNCCc1c[nH]c2ccccc12)c1ccc(F)cc1F [SR13] | 73.8 ± 2.37 | 50.6 ± 0.64 | 9.68 ± 0.16 |  | 
O=C(NCCc1c[nH]c2ccccc12)c1cc([N+](=O)[O-])cc([N+](=O)[O-])c1 [SR42] | > 70 | 43.2 ± 0.46 | 0.7 ± 0.21 |  | 
O=C(CNCCc1c[nH]c2ccccc12)c1ccc(O)c(O)c1 [SR20] | 68.7 ± 3.86 | 222.1 ± 0.32 | 24.97 ± 0.05 |  | 
O=C(CNCCc1c[nH]c2ccccc12)c1ccc(-c2ccccc2)cc1 [SR24] | 79.3 ± 2.02 |  | 6.7 ± 0.08 | 133.2 ± 0.46 | 
O=C(CNCCc1c[nH]c2ccccc12)c1ccc([N+](=O)[O-])cc1 [SR23] | 69.4 ± 3.11 | 95.1 ± 0.43 | 7.33 ± 0.12 |  | 71.40 ± 3.11
Cc1ccc(C(=O)CNCCc2c[nH]c3ccccc23)cc1 [SR14] | 65.3 ± 2.65 | 112.2 ± 0.29 | 68.71 ± 0.24 |  | 
C#CCN(C)Cc1ccccc1 [Pargyline, reference compound] |  | 23.4 ± 0.32 |  |  | 
O=C(CNCCc1c[nH]c2ccccc12)c1ccccc1[N+](=O)[O-] [SR21] | 34.4 ± 3.34 | 142.1 ± 0.32 | 87.73 ± 0.16 |  | 
NCCc1c[nH]c2ccccc12 [Tryptamine] | 57.3 ± 4.96 | 288.1 ± 0.32 | 88.26 ± 0.24 |  | 
O=C(CNCCc1c[nH]c2ccccc12)c1cccc([N+](=O)[O-])c1 [SR22] | 84.1 ± 4.53 | 56.46 ± 0.41 | 54.88 ± 0.19 |  | 
O=C(CNCCc1c[nH]c2ccccc12)c1ccc(F)cc1 [SR10] | > 70 | 216.1 ± 0.29 | 1 ± 0.08 |  | 
